Experimental data taken from patent US12435046B2, “Alkynyl quinazoline compounds” (Black Diamond Therapeutics, Inc., priority 2019, dated 2025).

Columns and labels:
Assay type in all cases: cell-based
Settings in all cases: Table A; BaF3 cells, 3 days
EGFR wt = molecular target: T1, EGFR wt (Homo sapiens, UniProt P00533); experiment: BaF3 cell proliferation assay (CellTiterGlo), EGFR wt
T1 construct: expressed in transfected cells; host or cells: BaF3 (murine pro-B) cells, retroviral transduction with pMXs-IRES-Blasticidin
T1 sequence (P00533 25-1210): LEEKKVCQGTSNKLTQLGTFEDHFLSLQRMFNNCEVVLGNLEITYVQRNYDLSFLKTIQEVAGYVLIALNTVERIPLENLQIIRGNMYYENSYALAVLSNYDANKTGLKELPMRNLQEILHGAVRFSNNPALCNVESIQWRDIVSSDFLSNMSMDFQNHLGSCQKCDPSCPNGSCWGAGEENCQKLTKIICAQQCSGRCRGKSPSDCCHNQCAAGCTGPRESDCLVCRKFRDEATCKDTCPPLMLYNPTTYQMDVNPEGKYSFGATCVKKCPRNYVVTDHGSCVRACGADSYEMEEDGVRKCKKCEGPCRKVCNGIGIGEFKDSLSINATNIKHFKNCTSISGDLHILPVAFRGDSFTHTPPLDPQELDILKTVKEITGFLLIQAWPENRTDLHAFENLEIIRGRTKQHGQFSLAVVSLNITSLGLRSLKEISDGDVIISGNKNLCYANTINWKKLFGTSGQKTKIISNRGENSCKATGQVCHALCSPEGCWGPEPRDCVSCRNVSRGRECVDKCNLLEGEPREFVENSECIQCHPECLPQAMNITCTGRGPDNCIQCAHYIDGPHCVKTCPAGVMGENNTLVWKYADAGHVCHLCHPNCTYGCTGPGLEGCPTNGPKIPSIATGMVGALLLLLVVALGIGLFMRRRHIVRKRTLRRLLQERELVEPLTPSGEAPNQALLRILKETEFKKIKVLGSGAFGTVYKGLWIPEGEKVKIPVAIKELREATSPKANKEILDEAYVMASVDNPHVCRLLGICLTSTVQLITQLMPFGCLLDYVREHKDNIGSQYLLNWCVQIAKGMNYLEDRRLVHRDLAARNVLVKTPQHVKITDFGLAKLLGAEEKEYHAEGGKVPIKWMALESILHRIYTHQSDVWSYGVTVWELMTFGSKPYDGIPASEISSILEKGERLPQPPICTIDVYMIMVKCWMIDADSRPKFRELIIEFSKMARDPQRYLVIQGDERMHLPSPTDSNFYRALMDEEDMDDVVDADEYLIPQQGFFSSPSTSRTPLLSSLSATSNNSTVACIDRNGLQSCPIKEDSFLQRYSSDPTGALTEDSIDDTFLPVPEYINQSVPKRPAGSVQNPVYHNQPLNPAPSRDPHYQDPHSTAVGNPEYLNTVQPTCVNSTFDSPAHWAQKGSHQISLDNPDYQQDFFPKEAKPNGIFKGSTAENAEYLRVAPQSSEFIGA
Description: (§1) Retroviral Production: EGFR mutants were subcloned into pMXs-IRES-Blasticidin (RTV-016, Cell Biolabs, San Diego, CA). Retroviral expression vector retrovirus was produced by transient transfection of HEK 293T cells with the retroviral EGFR mutant expression vector pMXs-IRES-Blasticidin (RTV-016, Cell Biolabs), pCMV-Gag-Pol vector and pCMV-VSV-G-Envelope vector. Briefly, HEK 293T/17 cells were plated in 100 mm collagen coated plate (354450, Corning Life Sciences, Tewksbury, MA) (4×10^5 per plate) and incubated overnight. The next day, retroviral plasmids (3 ng of EGFR mutant, 1.0 ng of pCMV-Gag-Pol and 0.5 ng pCMV-VSV-G) were mixed in 500 n1 of Optimem (31985, Life Technologies). The mixture was incubated at room temperature for 5 min and then added to Optimem containing transfection reagent Lipofectamine (11668, Invitrogen) and incubated for 20 minutes. Mixture was then added dropwise to HEK 293T cells. The next day the medium was replaced with fresh culture medium and retrovirus was harvested @ 24 and 48 hrs.
(§2) Generation of EGFR mutant stable cell lines: BaF3 cells (1.5E5 cells) were infected with 1 ml of viral supernatant supplemented with 8 ng/ml polybrene by centrifuging for 30 min at 1000 rpm. Cells were placed in a 37° C. incubator overnight. Cells were then spun for 5 minutes to pellet the cells. Supernatant was removed and cells re-infected a fresh 1 ml of viral supernatant supplemented with 8 ng/ml polybrene by centrifuging for 30 min at 1000 rpm. Cells were placed in 37° C. incubator overnight. Cells were then maintained in RPMI containing 10% Heat Inactivated FBS, 2% L-glutamine containing 10 ng/ml IL-3. After 48 hours cells were selected for retroviral infection in 10 […] for one week. Blasticidin resistant populations were washed twice in phosphate buffered saline before plating in media lacking IL-3 to select for IL-3 independent growth.
(§3) Assay for cell proliferation: BaF3 cell lines were resuspended at 1.3E5 c/ml in RPMI containing 10% Heat Inactivated FBS, 2% L-glutamine and 1% Pen/Strep and dispensed in triplicate (17.5E4 c/well) into 96 well plates. To determine the effect of drug on cell proliferation, cells incubated for 3 days in the presence of vehicle control or test drug at varying concentrations. Inhibition of cell growth was determined by luminescent quantification of intracellular ATP content using CellTiterGlo (Promega), according to the protocol provided by the manufacturer. Comparison of cell number on day 0 versus 72 hours post drug treatment was used to plot dose-response curves. The number of viable cells was determined and normalized to vehicle-treated controls. Inhibition of proliferation, relative to vehicle-treated controls was expressed as a fraction of 1 and graphed using PRISM® software (Graphpad Software, San Diego, CA). EC50 values were determined with the same application.

HER2 S310F = molecular target: T2, HER2 S310F (Homo sapiens, UniProt P04626, S310F); experiment: BaF3 cell proliferation assay (CellTiterGlo), HER2 S310F
T2 construct: expressed in transfected cells; host or cells: BaF3 (murine pro-B) cells
T2 sequence (P04626 23-1255 S310F): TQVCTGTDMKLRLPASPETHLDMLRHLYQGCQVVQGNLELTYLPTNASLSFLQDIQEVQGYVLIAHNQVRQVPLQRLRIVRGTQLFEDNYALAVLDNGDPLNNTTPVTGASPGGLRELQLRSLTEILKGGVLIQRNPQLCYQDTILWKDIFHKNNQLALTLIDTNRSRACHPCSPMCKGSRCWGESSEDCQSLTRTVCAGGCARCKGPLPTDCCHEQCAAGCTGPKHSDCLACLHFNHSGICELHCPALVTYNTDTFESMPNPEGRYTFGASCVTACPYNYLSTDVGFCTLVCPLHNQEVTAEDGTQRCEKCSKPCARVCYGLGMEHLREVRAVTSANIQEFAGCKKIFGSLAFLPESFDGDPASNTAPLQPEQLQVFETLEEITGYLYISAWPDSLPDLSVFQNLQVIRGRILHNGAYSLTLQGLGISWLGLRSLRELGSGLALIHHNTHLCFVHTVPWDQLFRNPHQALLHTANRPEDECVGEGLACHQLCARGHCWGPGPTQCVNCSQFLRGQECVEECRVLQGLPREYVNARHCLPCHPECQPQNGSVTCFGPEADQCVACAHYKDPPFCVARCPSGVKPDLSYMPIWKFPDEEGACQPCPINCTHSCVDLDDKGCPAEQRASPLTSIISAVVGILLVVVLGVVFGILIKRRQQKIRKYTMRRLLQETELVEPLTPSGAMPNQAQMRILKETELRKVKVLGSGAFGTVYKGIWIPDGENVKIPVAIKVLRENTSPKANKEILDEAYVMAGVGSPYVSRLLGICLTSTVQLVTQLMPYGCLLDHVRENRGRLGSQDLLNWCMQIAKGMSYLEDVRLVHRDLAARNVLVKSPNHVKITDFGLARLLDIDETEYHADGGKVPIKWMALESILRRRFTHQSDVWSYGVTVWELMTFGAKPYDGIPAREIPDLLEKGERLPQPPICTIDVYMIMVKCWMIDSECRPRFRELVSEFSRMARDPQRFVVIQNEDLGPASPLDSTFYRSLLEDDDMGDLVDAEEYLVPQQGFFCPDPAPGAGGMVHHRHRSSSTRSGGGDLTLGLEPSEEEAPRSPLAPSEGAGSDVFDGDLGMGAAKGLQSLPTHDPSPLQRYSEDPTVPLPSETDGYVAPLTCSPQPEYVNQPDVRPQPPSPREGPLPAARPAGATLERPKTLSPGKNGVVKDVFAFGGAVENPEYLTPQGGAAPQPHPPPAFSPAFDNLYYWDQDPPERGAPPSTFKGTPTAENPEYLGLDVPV

EGFR V3 = molecular target: T3, EGFR V3 (Homo sapiens, UniProt P00533, DELINS30-297G); experiment: BaF3 cell proliferation assay (CellTiterGlo), EGFR V3
T3 construct: expressed in transfected cells; host or cells: BaF3 (murine pro-B) cells, retroviral transduction with pMXs-IRES-Blasticidin
T3 sequence (P00533 with tags, fused parts or gaps DELINS30-297G): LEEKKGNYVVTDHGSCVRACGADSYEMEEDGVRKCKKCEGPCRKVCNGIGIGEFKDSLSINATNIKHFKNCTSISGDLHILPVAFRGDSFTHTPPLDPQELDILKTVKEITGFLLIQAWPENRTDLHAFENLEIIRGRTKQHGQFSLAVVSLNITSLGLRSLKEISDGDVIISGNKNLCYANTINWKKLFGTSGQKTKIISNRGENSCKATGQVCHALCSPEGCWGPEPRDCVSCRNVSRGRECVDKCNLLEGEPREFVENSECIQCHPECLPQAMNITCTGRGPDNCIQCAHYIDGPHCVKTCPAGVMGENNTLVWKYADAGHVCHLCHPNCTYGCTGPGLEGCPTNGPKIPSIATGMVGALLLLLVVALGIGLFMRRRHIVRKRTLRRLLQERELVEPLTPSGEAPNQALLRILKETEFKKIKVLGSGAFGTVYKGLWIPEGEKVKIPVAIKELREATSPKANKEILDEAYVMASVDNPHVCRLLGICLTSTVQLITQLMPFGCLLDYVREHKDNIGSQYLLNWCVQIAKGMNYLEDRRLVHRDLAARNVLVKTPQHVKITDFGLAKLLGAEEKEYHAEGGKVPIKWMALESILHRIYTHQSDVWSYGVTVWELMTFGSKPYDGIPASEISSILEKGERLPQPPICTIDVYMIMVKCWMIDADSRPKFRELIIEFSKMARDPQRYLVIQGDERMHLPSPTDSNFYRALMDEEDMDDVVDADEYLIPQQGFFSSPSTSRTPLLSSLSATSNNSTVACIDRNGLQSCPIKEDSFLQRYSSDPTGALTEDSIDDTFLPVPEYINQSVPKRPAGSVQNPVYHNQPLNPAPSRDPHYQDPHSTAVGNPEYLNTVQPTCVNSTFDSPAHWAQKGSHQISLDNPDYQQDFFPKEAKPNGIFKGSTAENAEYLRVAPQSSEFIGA
Description: as §1, §2, §3

HER2 YVMA = molecular target: T4, HER2 YVMA (Homo sapiens, UniProt P04626, INS775YVMA); experiment: BaF3 cell proliferation assay (CellTiterGlo), HER2 YVMA
T4 construct: expressed in transfected cells; host or cells: BaF3 (murine pro-B) cells
T4 sequence (P04626 with tags, fused parts or gaps INS775YVMA): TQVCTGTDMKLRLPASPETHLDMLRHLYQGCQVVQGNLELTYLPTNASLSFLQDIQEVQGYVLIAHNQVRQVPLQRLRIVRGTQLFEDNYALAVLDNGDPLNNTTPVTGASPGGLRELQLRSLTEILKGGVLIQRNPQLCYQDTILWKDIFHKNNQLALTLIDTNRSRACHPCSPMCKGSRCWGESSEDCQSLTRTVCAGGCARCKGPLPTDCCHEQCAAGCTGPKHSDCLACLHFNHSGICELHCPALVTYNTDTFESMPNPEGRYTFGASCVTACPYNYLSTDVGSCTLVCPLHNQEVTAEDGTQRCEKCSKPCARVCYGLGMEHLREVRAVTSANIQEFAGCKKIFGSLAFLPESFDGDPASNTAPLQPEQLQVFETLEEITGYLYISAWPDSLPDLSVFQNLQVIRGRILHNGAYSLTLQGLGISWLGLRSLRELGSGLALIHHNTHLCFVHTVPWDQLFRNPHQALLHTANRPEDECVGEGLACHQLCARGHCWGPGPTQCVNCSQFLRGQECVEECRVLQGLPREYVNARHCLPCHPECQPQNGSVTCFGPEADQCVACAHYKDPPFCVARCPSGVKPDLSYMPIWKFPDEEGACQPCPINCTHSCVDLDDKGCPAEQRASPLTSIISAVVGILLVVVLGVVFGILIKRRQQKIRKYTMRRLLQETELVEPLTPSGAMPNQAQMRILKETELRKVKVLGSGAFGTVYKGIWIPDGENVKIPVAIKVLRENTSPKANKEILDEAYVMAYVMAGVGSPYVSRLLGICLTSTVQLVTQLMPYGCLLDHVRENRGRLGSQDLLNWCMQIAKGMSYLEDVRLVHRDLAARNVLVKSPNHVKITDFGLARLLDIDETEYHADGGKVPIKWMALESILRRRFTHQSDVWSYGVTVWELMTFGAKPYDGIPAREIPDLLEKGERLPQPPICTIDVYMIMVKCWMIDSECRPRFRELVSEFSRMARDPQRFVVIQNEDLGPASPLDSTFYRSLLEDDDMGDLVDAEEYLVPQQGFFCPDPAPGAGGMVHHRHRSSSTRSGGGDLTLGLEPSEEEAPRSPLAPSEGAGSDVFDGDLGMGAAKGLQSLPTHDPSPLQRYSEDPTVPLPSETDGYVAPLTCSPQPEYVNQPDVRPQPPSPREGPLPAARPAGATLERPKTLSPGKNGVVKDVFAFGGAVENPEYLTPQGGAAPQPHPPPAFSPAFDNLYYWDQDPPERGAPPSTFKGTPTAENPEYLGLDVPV

IC50 (EGFR wt) | IC50 (HER2 S310F) | IC50 (EGFR V3) | IC50 (HER2 YVMA) | SMILES
> 0.5 µM | 0.1 to 0.5 µM | 0.05 to 0.1 µM | – | CN(C)C/C=C/C(=O)Nc1cc2c(Nc3cccc(Cl)c3F)ncnc2cc1C#C[C@@]1(C)CCN(C)C1 [Compound 24, (R,E)-N-(4-((3-chloro-2-fluorophenyl)amino)-7-((1,3-dimethylpyrrolidin-3-yl)ethynyl)quinazolin-6-yl)-4-(dimethylamino)but-2-enamide]
0.05 to 0.1 µM | – | ≤ 0.05 µM | 0.1 to 0.5 µM | CC#CC(=O)Nc1cc2c(Nc3cccc(Cl)c3F)ncnc2cc1C#C[C@@]12C[C@@H]1CN(C)C2 [Compound 38, N-(4-((3-chloro-2-fluorophenyl)amino)-7-(((1R,5S)-3-methyl-3-azabicyclo[3.1.0]hexan-1-yl)ethynyl)quinazolin-6-yl)but-2-ynamide]
0.1 to 0.5 µM | ≤ 0.05 µM | ≤ 0.05 µM | – | CN1C[C@H]2C[C@@]2(C#Cc2cc3ncnc(Nc4cccc(Cl)c4F)c3cc2NC(=O)/C=C/CN2C3COCC2C3)C1 [Compound 20, (E)-4-(3-oxa-6-azabicyclo[3.1.1]heptan-6-yl)-N-(4-((3-chloro-2-fluorophenyl)amino)-7-(((1R,5S)-3-methyl-3-azabicyclo[3.1.0]hexan-1-yl)ethynyl)quinazolin-6-yl)but-2-enamide]
0.1 to 0.5 µM | – | ≤ 0.05 µM | 0.1 to 0.5 µM | C=CC(=O)Nc1cc2c(Nc3ccc(Oc4ccccc4)cc3)ncnc2cc1C#C[C@@]12C[C@@H]1CN(C)C2 [Compound 40, N-(7-(((1R,5S)-3-methyl-3-azabicyclo[3.1.0]hexan-1-yl)ethynyl)-4-((4-phenoxyphenyl)amino)quinazolin-6-yl)acrylamide]
> 0.5 µM | – | ≤ 0.05 µM | > 0.5 µM | C=CC(=O)Nc1cc2c(Nc3cccc(Cl)c3F)ncnc2cc1C#CC1(C)CN(C)CCO1 (stereo not shown) [Compound 32, N-(4-((3-chloro-2-fluorophenyl)amino)-7-((2,4-dimethylmorpholin-2-yl)ethynyl)quinazolin-6-yl)acrylamide]
≤ 0.05 µM | – | ≤ 0.05 µM | ≤ 0.05 µM | C=CC(=O)Nc1cc2c(Nc3cccc(Cl)c3F)ncnc2cc1C#C[C@]1(OC)CCN(C)C1 [Compound 36, (R)—N-(4-((3-chloro-2-fluorophenyl)amino)-7-((3-methoxy-1-methylpyrrolidin-3-yl)ethynyl)quinazolin-6-yl)acrylamide]
≤ 0.05 µM | – | ≤ 0.05 µM | ≤ 0.05 µM | C=CC(=O)Nc1cc2c(Nc3cccc(Cl)c3F)ncnc2cc1C#C[C@]12C[C@H]1CN(C(C)C)C2 [Compound 42, N-(4-((3-chloro-2-fluorophenyl)amino)-7-(((1S,5R)-3-isopropyl-3-azabicyclo[3.1.0]hexan-1-yl)ethynyl)quinazolin-6-yl)acrylamide]
≤ 0.05 µM | – | ≤ 0.05 µM | ≤ 0.05 µM | C=CC(=O)Nc1cc2c(Nc3cccc(Cl)c3F)ncnc2cc1C#C[C@@]1(OC)CCN(C)C1 [Compound 35, (S)—N-(4-((3-chloro-2-fluorophenyl)amino)-7-((3-methoxy-1-methylpyrrolidin-3-yl)ethynyl)quinazolin-6-yl)acrylamide]
≤ 0.05 µM | – | ≤ 0.05 µM | ≤ 0.05 µM | C=CC(=O)Nc1cc2c(Nc3ccc(Cl)c(Cl)c3F)ncnc2cc1C#C[C@]12C[C@H]1CN(C)C2 [Compound 33, N-(4-((3,4-dichloro-2-fluorophenyl)amino)-7-(((1S,5R)-3-methyl-3-azabicyclo[3.1.0]hexan-1-yl)ethynyl)quinazolin-6-yl)acrylamide]
≤ 0.05 µM | – | ≤ 0.05 µM | ≤ 0.05 µM | CN(C)C/C=C/C(=O)Nc1cc2c(Nc3cccc(Cl)c3F)ncnc2cc1C#CC1(C)CCOC1 (stereo not shown) [Compound 44, (E)-N-(4-((3-chloro-2-fluorophenyl)amino)-7-((3-methyltetrahydrofuran-3-yl)ethynyl)quinazolin-6-yl)-4-(dimethylamino)but-2-enamide]
0.05 to 0.1 µM | – | > 0.5 µM | > 0.5 µM | CC(C)/C=C/C(=O)Nc1cc2c(Nc3cccc(Cl)c3F)ncnc2cc1C#C[C@@]1(C)CCN(C)C1 [Compound 39, (E)-N-[4-(3-chloro-2-fluoro-anilino)-7-[2-[(3R)-1,3-dimethylpyrrolidin-3-yl]ethynyl]quinazolin-6-yl]-4-methyl-pent-2-enamide]
0.1 to 0.5 µM | – | 0.1 to 0.5 µM | > 0.5 µM | C=CC(=O)Nc1cc2c(Nc3cc(Cl)ccc3F)ncnc2cc1C#CC1(C)COC1 [Compound 29, N-(4-((5-chloro-2-fluorophenyl)amino)-7-((3-methyloxetan-3-yl)ethynyl)quinazolin-6-yl)acrylamide]
≤ 0.05 µM | – | > 0.5 µM | > 0.5 µM | COC(=O)Nc1cc2c(Nc3cccc(Cl)c3F)ncnc2cc1C#CC1(C)CCN(C)C1 (stereo not shown) [Compound 43, Methyl (4-((3-chloro-2-fluorophenyl)amino)-7-((1,3-dimethylpyrrolidin-3-yl)ethynyl)quinazolin-6-yl)carbamate]
– | > 0.5 µM | > 0.5 µM | – | CCC(=O)Nc1cc2c(Nc3cccc(Cl)c3F)ncnc2cc1C#C[C@@]1(C)CCN(C)C1 [Compound 22, (R)—N-(4-((3-chloro-2-fluorophenyl)amino)-7-((1,3-dimethylpyrrolidin-3-yl)ethynyl)quinazolin-6-yl)propionamide]
0.05 to 0.1 µM | – | ≤ 0.05 µM | 0.05 to 0.1 µM | C=CC(=O)Nc1cc2c(Nc3cccc(Cl)c3F)ncnc2cc1C#CC1(C)COC1 [Compound 30, N-(4-((3-chloro-2-fluorophenyl)amino)-7-((3-methyloxetan-3-yl)ethynyl)quinazolin-6-yl)acrylamide]
≤ 0.05 µM | – | ≤ 0.05 µM | ≤ 0.05 µM | C=CC(=O)Nc1cc2c(Nc3ccc(Cl)c(Cl)c3F)ncnc2cc1C#C[C@@]12C[C@@H]1CN(C)C2 [Compound 34]
– | ≤ 0.05 µM | ≤ 0.05 µM | – | CN1C[C@H]2C[C@@]2(C#Cc2cc3ncnc(Nc4cccc(Cl)c4F)c3cc2NC(=O)C#CCN2CCOCC2)C1 [Compound 18, N-(4-((3-chloro-2-fluorophenyl)amino)-7-(((1R,5S)-3-methyl-3-azabicyclo[3.1.0]hexan-1-yl)ethynyl)quinazolin-6-yl)-4-morpholinobut-2-ynamide]
≤ 0.05 µM | – | 0.05 to 0.1 µM | 0.1 to 0.5 µM | C=C(CO)C(=O)Nc1cc2c(Nc3cccc(Cl)c3F)ncnc2cc1C#C[C@@]1(C)CCN(C)C1 [Compound 31, (R)—N-(4-((3-chloro-2-fluorophenyl)amino)-7-((1,3-dimethylpyrrolidin-3-yl)ethynyl)quinazolin-6-yl)-2-(hydroxymethyl)acrylamide]
> 0.5 µM | – | > 0.5 µM | > 0.5 µM | CN1CC[C@](C)(C#Cc2cc3ncnc(Nc4cccc(Cl)c4F)c3cc2NC(=O)CC#N)C1 [Compound No. 84, (R)—N-(4-((3-chloro-2-fluorophenyl)amino)-7-((1,3-dimethylpyrrolidin-3-yl)ethynyl)quinazolin-6-yl)-2-cyanoacetamide]
0.1 to 0.5 µM | – | > 0.5 µM | > 0.5 µM | C/C=C/C(=O)Nc1cc2c(Nc3cccc(Cl)c3F)ncnc2cc1C#C[C@@]1(C)CCN(C)C1 [Compound 27, (R,E)-N-(4-((3-chloro-2-fluorophenyl)amino)-7-((1,3-dimethylpyrrolidin-3-yl)ethynyl)quinazolin-6-yl)but-2-enamide]
> 0.5 µM | – | ≤ 0.05 µM | ≤ 0.05 µM | C=CC(=O)Nc1cc2c(Nc3ccc(Oc4ccn5ncnc5c4)c(C)c3)ncnc2cc1C#CC12CC1CN(C)C2 (stereo not shown) [Compound 28, N-(4-((4-([1,2,4]triazolo[1,5-a]pyridin-7-yloxy)-3-methylphenyl)amino)-7-((3-methyl-3-azabicyclo[3.1.0]hexan-1-yl)ethynyl)quinazolin-6-yl)acrylamide]
